One molecule from ChEMBL document CHEMBL1151530, “Characterization of the in vitro oxidative metabolites of the COX-2 selective inhibitor L-766,112” (Bioorg Med Chem Lett, 1997) can be followed below.

Each structure is given as a SMILES string.

The species entered for data set [1] is Macaca mulatta. The data set is described as follows: Percentage recovery in rhesus monkey hepatic microsomal fractions under oxidative conditions after 1 hour. Conditions: liver microsomes.
Data set [2] is described as follows: Percentage recovery in rat hepatic microsomal fractions under oxidative conditions after 1 hour. Format: ADME. Conditions: liver microsomes, read-out: Recovery. (In general: Microsomes from liver hold many membrane-bound enzymes, among them those of drug oxidation.)

Consider `CS(=O)(=O)c1ccc(-c2c(-c3ccccc3)nc3sccn23)cc1`, for which the remaining at 1 h in data set [1] came out at 65%; in data set [2], 75%.
